Legend:
Type in all cases: functional
M14 = experiment: Growth inhibition of human M14 cells assessed as cell growth at 10 uM after 48 hrs by sulforhodamine B assay relative to control; details: M14, 48 h, read-out: Activity
RPMI-8226 = experiment: Growth inhibition of human RPMI8226 cells assessed as cell growth at 10 uM after 48 hrs by sulforhodamine B assay relative to control; details: RPMI-8226, 48 h, read-out: Activity
MDA-MB-468 = experiment: Growth inhibition of human MDA-MB-468 cells assessed as cell growth at 10 uM after 48 hrs by sulforhodamine B assay relative to control; details: MDA-MB-468, 48 h, read-out: Activity
EKVX = experiment: Growth inhibition of human EKVX cells assessed as cell growth at 10 uM after 48 hrs by sulforhodamine B assay relative to control; details: read-out: Activity
SNB-75 = experiment: Growth inhibition of human SNB75 cells assessed as cell growth at 10 uM after 48 hrs by sulforhodamine B assay relative to control; details: SNB-75, 48 h, read-out: Activity
OVCAR-3 = experiment: Growth inhibition of human OVCAR3 cells assessed as cell growth at 10 uM after 48 hrs by sulforhodamine B assay relative to control; details: OVCAR-3, 48 h, read-out: Activity
NCI-H322M = experiment: Growth inhibition of human NCI-H322M cells assessed as cell growth at 10 uM after 48 hrs by sulforhodamine B assay relative to control; details: read-out: Activity
CCRF-CEM = experiment: Growth inhibition of human CCRF-CEM cells assessed as cell growth at 10 uM after 48 hrs by sulforhodamine B assay relative to control; details: read-out: Activity
IGROV-1 = experiment: Growth inhibition of human IGROV1 cells assessed as cell growth at 10 uM after 48 hrs by sulforhodamine B assay relative to control; details: IGROV-1, 48 h, read-out: Activity
OVCAR-8 = experiment: Growth inhibition of human OVCAR8 cells assessed as cell growth at 10 uM after 48 hrs by sulforhodamine B assay relative to control; details: OVCAR-8, 48 h, read-out: Activity
HCT-116 = experiment: Growth inhibition of human HCT116 cells assessed as cell growth at 10 uM after 48 hrs by sulforhodamine B assay relative to control; details: HCT-116, 48 h, read-out: Activity
HOP-62 = experiment: Growth inhibition of human HOP62 cells assessed as cell growth at 10 uM after 48 hrs by sulforhodamine B assay relative to control; details: HOP-62, 48 h, read-out: Activity
RXF 393 = experiment: Growth inhibition of human RXF393 cells assessed as cell growth at 10 uM after 48 hrs by sulforhodamine B assay relative to control; details: RXF 393, 48 h, read-out: Activity
MCF7 = experiment: Growth inhibition of human MCF7 cells assessed as cell growth at 10 uM after 48 hrs by sulforhodamine B assay relative to control; details: MCF7, 48 h, read-out: Activity
SF-268 = experiment: Growth inhibition of human SF268 cells assessed as cell growth at 10 uM after 48 hrs by sulforhodamine B assay relative to control; details: SF-268, 48 h, read-out: Activity
UACC-257 = experiment: Growth inhibition of human UACC257 cells assessed as cell growth at 10 uM after 48 hrs by sulforhodamine B assay relative to control; details: UACC-257, 48 h, read-out: Activity
SK-MEL-28 = experiment: Growth inhibition of human SK-MEL-28 cells assessed as cell growth at 10 uM after 48 hrs by sulforhodamine B assay relative to control; details: SK-MEL-28, 48 h, read-out: Activity
NCI-H460 = experiment: Growth inhibition of human NCI-H460 cells assessed as cell growth at 10 uM after 48 hrs by sulforhodamine B assay relative to control; details: NCI-H460, 48 h, read-out: Activity
UACC-62 = experiment: Growth inhibition of human UACC62 cells assessed as cell growth at 10 uM after 48 hrs by sulforhodamine B assay relative to control; details: UACC-62, 48 h, read-out: Activity
A498 = experiment: Growth inhibition of human A498 cells assessed as cell growth at 10 uM after 48 hrs by sulforhodamine B assay relative to control; details: A498, 48 h, read-out: Activity
MDA-MB-435 = experiment: Growth inhibition of human MDA-MB-435 cells assessed as cell growth at 10 uM after 48 hrs by sulforhodamine B assay relative to control; details: MDA-MB-435, 48 h, read-out: Activity
786-0 = experiment: Growth inhibition of human 786-0 cells assessed as cell growth at 10 uM after 48 hrs by sulforhodamine B assay relative to control; details: 786-0, 48 h, read-out: Activity
HCT-15 = experiment: Growth inhibition of human HCT15 cells assessed as cell growth at 10 uM after 48 hrs by sulforhodamine B assay relative to control; details: HCT-15, 48 h, read-out: Activity
HL-60(TB) = experiment: Growth inhibition of human HL-60(TB) cells assessed as cell growth at 10 uM after 48 hrs by sulforhodamine B assay relative to control; details: HL-60, 48 h, read-out: Activity
SK-MEL-5 = experiment: Growth inhibition of human SK-MEL-5 cells assessed as cell growth at 10 uM after 48 hrs by sulforhodamine B assay relative to control; details: SK-MEL-5, 48 h, read-out: Activity
DU-145 = experiment: Growth inhibition of human DU145 cells assessed as cell growth at 10 uM after 48 hrs by sulforhodamine B assay relative to control; details: DU-145, 48 h, read-out: Activity
SN12C = experiment: Growth inhibition of human SN12C cells assessed as cell growth at 10 uM after 48 hrs by sulforhodamine B assay relative to control; details: read-out: Activity
MOLT-4 = experiment: Growth inhibition of human MOLT4 cells assessed as cell growth at 10 uM after 48 hrs by sulforhodamine B assay relative to control; details: MOLT-4, 48 h, read-out: Activity
TK-10 = experiment: Growth inhibition of human TK10 cells assessed as cell growth at 10 uM after 48 hrs by sulforhodamine B assay relative to control; details: TK-10, 48 h, read-out: Activity
NCI-H226 = experiment: Growth inhibition of human NCI-H226 cells assessed as cell growth at 10 uM after 48 hrs by sulforhodamine B assay relative to control; details: NCI-H226, 48 h, read-out: Activity
A549 = experiment: Growth inhibition of human A549/ATCC cells assessed as cell growth at 10 uM after 48 hrs by sulforhodamine B assay relative to control; details: A549, 48 h, read-out: Activity
CAKI-1 = experiment: Growth inhibition of human Caki1 cells assessed as cell growth at 10 uM after 48 hrs by sulforhodamine B assay relative to control; details: CAKI-1, 48 h, read-out: Activity
OVCAR-5 = experiment: Growth inhibition of human OVCAR5 cells assessed as cell growth at 10 uM after 48 hrs by sulforhodamine B assay relative to control; details: OVCAR-5, 48 h, read-out: Activity

Row | Structure (SMILES) | growth at 10 µM (M14) [%] | growth at 10 µM (RPMI-8226) [%] | growth at 10 µM (MDA-MB-468) [%] | growth at 10 µM (EKVX) [%] | growth at 10 µM (SNB-75) [%] | growth at 10 µM (OVCAR-3) [%] | growth at 10 µM (NCI-H322M) [%] | growth at 10 µM (CCRF-CEM) [%] | growth at 10 µM (IGROV-1) [%] | growth at 10 µM (OVCAR-8) [%] | growth at 10 µM (HCT-116) [%] | growth at 10 µM (HOP-62) [%] | growth at 10 µM (RXF 393) [%] | growth at 10 µM (MCF7) [%] | growth at 10 µM (SF-268) [%] | growth at 10 µM (UACC-257) [%] | growth at 10 µM (SK-MEL-28) [%] | growth at 10 µM (NCI-H460) [%] | growth at 10 µM (UACC-62) [%] | growth at 10 µM (A498) [%] | further results
1 | COc1ccc(Cn2cc(C(=O)N/N=C3/C(=O)Nc4ccc(F)c(Cl)c43)nn2)cc1 | 107 | 116 | 108 | 108 | 103 | 105 | 105 | 109 | 110 | 99.2 | 109 | 112 | 104 | 91.8 | 99.4 | 100 | 115 | 108 | 108 | 91.3 | growth at 10 µM (MDA-MB-435): 99.3%; growth at 10 µM (786-0): 103%; growth at 10 µM (HCT-15): 113%; growth at 10 µM (HL-60(TB)): 78.7%; growth at 10 µM (SK-MEL-5): 99.9%; growth at 10 µM (DU-145): 96.6%; growth at 10 µM (SN12C): 103%; growth at 10 µM (MOLT-4): 96.8%; growth at 10 µM (TK-10): 101%; growth at 10 µM (NCI-H226): 93.2%; growth at 10 µM (A549): 98%; growth at 10 µM (CAKI-1): 96.8%; growth at 10 µM (OVCAR-5): 122%
2 | COc1ccc(Cn2cc(C(=O)N/N=C3/C(=O)Nc4c(F)cccc43)nn2)cc1 | 101 | 89.7 | 89.6 | 107 | 90.1 | 111 | 97.5 | 90.2 | 91.1 | 85.5 | 63.7 | 98.4 | 86.3 | 94.1 | 100 | 88.7 | 104 | 105 | 89.3 | 113 | growth at 10 µM (MDA-MB-435): 102%; growth at 10 µM (786-0): 101%; growth at 10 µM (HCT-15): 99.5%; growth at 10 µM (HL-60(TB)): 90.7%; growth at 10 µM (SK-MEL-5): 99.3%; growth at 10 µM (DU-145): 102%; growth at 10 µM (SN12C): 94.8%; growth at 10 µM (MOLT-4): 96.5%; growth at 10 µM (TK-10): 96%; growth at 10 µM (NCI-H226): 91.9%; growth at 10 µM (A549): 93.2%; growth at 10 µM (CAKI-1): 84.2%; growth at 10 µM (OVCAR-5): 94.8%
